Values after ≈ are worked out from the molar mass of the structure shown. Active and inactive are the calls of the source.

A word on the MIC: it is the smallest concentration in the dilution series that meets the test's criterion for growth inhibition. High values mean a less susceptible organism, low ones a more susceptible organism.

In data set [1] the test system is Bacillus cereus. Kind of data set: Antibacterial activity against Bacillus cereus after 24 hrs by broth microdilution method. The format is functional. (Dilution methods test growth across graded concentrations, often in twofold steps.)
The next data set deals with KB. Description: Cytotoxicity against human KB cells. The format is functional. To be noted: read-out: ED50 (the source's name).
For data set [2], the system named is Staphylococcus epidermidis. Kind of data set: Antibacterial activity against Staphylococcus epidermidis at 60 ug/disk by paper disk diffusion technique. The format is functional. Conditions: read-out: IZ. Background: Agar diffusion results depend on both activity and mobility in agar.
The test system of another data set is Pseudomonas aeruginosa. Description: Antibacterial activity against Pseudomonas aeruginosa at 60 ug/disk by paper disk diffusion technique. It counts as functional, organism-based.
Data set [3] relates to Bacillus cereus. Kind of data set: Antibacterial activity against Bacillus cereus at 60 ug/disk by paper disk diffusion technique. The format is functional. Conditions: read-out: IZ.
Data set [4] can be described thus: Toxicity in Artemia salina. The format is organism-based. To be noted: in vivo, read-out: LD50 (the source's name).
For data set [5], the system named is Staphylococcus epidermidis. Kind of data set: Antibacterial activity against Staphylococcus epidermidis after 24 hrs by broth microdilution method. The format is functional.

For the molecule `CCC/C=C/CCCc1ccc(O)cc1` [GIBBILIMBOL C], the minimal inhibitory concentration (MIC) (in the data set with Bacillus cereus [1]; in data set [5]) was 2 µg/mL (≈ 9.79 µM) in each case. Further, the EC50 in the data set with KB was found to be 7.8 µg/mL (≈ 38.2 µM). In addition, the zone of inhibition at 60 µg/disc (in data set [2]; with Bacillus cereus [3]) was less than 2 mm throughout. For the same molecule, the result in the data set on Pseudomonas aeruginosa was inactive. Further, the LC50 in data set [4] was 5.5 µg/mL (≈ 26.9 µM).

In the case of `O=C(N[C@H](CO)[C@H](O)c1ccc([N+](=O)[O-])cc1)C(Cl)Cl` [CHLORAMPHENICOL], the MIC came out at 4 µg/mL (≈ 12.4 µM) against Bacillus cereus [1] and 8 µg/mL (≈ 24.8 µM) in data set [5].

Consider `CCCC/C=C/CCc1ccc(O)cc1` [GIBBILIMBOL D], for which the MIC (against Bacillus cereus [1]; in data set [5]) was 2 µg/mL (≈ 9.79 µM) throughout. Further, the EC50 in the data set on KB turned out to be 2.1 µg/mL (≈ 10.3 µM). Besides, the zone of inhibition at 60 µg/disc (in data set [2]; in the data set on Bacillus cereus [3]) was less than 2 mm each time. In addition, the result with Pseudomonas aeruginosa was inactive. For the same molecule, the LC50 in data set [4] amounted to 5 µg/mL (≈ 24.5 µM).

As for `CCCCC/C=C/CCCc1ccc(O)cc1` [GIBBILIMBOL A], the MIC (with Bacillus cereus [1]; in data set [5]) was 4 µg/mL (≈ 17.2 µM) each time. Further, the EC50 with KB stood at 4.4 µg/mL (≈ 18.9 µM). For the same molecule, the zone of inhibition at 60 µg/disc (in data set [2]; with Bacillus cereus [3]) was less than 2 mm in each case. In addition, the outcome with Pseudomonas aeruginosa was inactive. Besides, in data set [4], the LC50 was found to be 5.3 µg/mL (≈ 22.8 µM).

As for `CCCCCC/C=C/CCc1ccc(O)cc1` [GIBBILIMBOL B], the MIC in the data set on Bacillus cereus [1] came out at 4 µg/mL (≈ 17.2 µM); in data set [5] it was 2 µg/mL (≈ 8.61 µM). Also, in the data set with KB, the EC50 is 3.9 µg/mL (≈ 16.8 µM). Further, the zone of inhibition at 60 µg/disc (in data set [2]; in the data set on Bacillus cereus [3]) was less than 2 mm in each case. In addition, in the data set on Pseudomonas aeruginosa, the result was inactive. In data set [4], the LC50 stood at 4.9 µg/mL (≈ 21.1 µM).
